Measured values: US20120302609A1, “Pyrazolines for the Modulation of PKM2” (Dynamix Pharmaceuticals LTD., priority 2011, published 2012)

Assays:
HT-29 xenograft = HT-29 xenograft mouse model, tumor efficacy; type: in vivo; conditions: i.p.
Description: This example illustrates the efficacy and safety of a compound according to embodiments of the present invention, i.e., Compound 1A, using a HT-29 xenograft mouse model (a colorectal cancer model).
The HT-29 cells were maintained in vitro as a monolayer culture in McCoy's 5A medium supplemented with 10% heat inactivated fetal bovine serum, 100 U/ml penicillin and 100 μg/ml streptomycin at 37° C. in an atmosphere of 5% CO2 in air. The tumor cells were routinely subcultured twice weekly by trypsin-EDTA treatment. The cells growing in an exponential growth phase were harvested and counted for tumor inoculation.
65 mice were inoculated subcutaneously at the right flank with 3.0×10^6 HT-29 tumor cells in 0.1 ml of serum-free medium for tumor development. The treatments were started when the tumor size reached approximately 75 (50-100) mm^3. The test article administration and the animal numbers in each group are shown in the following experiment design Table 5.
The major endpoint was to see if the tumor growth can be delayed or mice can be cured. Tumor size was measured three times weekly in two dimensions using a caliper, and the volume was expressed in mm^3 using the formula: V=0.5 a×b^2 where a and b are the long and short diameters of the tumor, respectively. The tumor size was then used for calculations of both T-C and TGI values. T-C was calculated with T as the median time (in days) required for the treatment group tumors to reach a predetermined size (e.g., 1,000 mm^3), and C as the median time (in days) for the control group tumors to reach the same size. The TGI (in percent)=(T−C)/C*100% represents the tumor growth inhibition rate, T and C were the mean volume of the treated and control groups, respectively, on a given day. Tumor weight was measured at the study termination. The T/C value (in percent) was calculated where T and C are the mean tumor weights of the treated and control groups, respectively.

BT-474 (Breast) = assay: Cell proliferation assay (CellTiter-Glo Luminescent); type: cell-based; conditions: Homo sapiens, Complete media, 96 hr
DU145 (prostate) = assay: as above; type: cell-based; conditions: Homo sapiens, DU-145, Complete media, 96 hr
H-460 (lung) = assay: Cell proliferation assay (XTT); type: cell-based; conditions: Homo sapiens, NCI-H460, 72 h, Assay duration: 72 hours, Readout: XTT
Description: Day 0 Cells were seeded at 3000 cells/well in 100 μl full media in 96-well culture plates (60 wells/plate, external wells filled with 100 μl PBS) and incubated overnight. • Day 1 On the following day, full media was changed to the tested media and compounds were added in 0.5% DMSO final. • Day 2-5 Cells were incubated over 72 hr. • Day 5 Cell proliferation was assessed using XTT proliferation assay as follows:
The assay is based on the ability of metabolic active cells to reduce the tetrazolium salt XTT to orange colored compounds of formazan. The dye formed is water soluble and the dye intensity can be read at a given wavelength with a spectrophotometer. The intensity of the dye is proportional to the number of metabolic active cells. The use of multiwell plates and an ELISA reader enables testing a large number of samples and obtaining easy and rapid results. The test procedure includes cultivation of cells in a 96-well plate, adding the XTT reagent and incubation for 2-24 hours. During incubation an orange color is formed, the intensity of which can be measured with a spectrophotometer, in this instance with an ELISA reader. The greater the number of active cells in the well, the greater the activity of mitochondria enzymes, and the higher the concentration of the dye formed, which can then be measured and quantitated.
• 1. […] The absorbance of the samples was measured against a background control as a blank (see 7) with a spectrophotometer (ELISA reader) at a wavelength of 450-500 nanometer. In order to measure reference absorbance (to measure non-specific readings), a wavelength of 630-690 nanometer was used and subtracted from the 450-500 nanometer measurement. • 7. Background control (blank): Slight spontaneous absorbance around 450-500 nanometer occurs in the culture medium incubated with the XTT reagent. This background absorbance depends on the culture medium, pH, incubation time and length of exposure to light. […] The average absorbance of the blank control wells was subtracted from that of the other wells. […]

PKL = PKL (Homo sapiens, UniProt P30613); assay: Isoform selectivity of pyruvate kinases; type: biochemical
Sequence of PKL (P30613 1-543 isoform P30613-2): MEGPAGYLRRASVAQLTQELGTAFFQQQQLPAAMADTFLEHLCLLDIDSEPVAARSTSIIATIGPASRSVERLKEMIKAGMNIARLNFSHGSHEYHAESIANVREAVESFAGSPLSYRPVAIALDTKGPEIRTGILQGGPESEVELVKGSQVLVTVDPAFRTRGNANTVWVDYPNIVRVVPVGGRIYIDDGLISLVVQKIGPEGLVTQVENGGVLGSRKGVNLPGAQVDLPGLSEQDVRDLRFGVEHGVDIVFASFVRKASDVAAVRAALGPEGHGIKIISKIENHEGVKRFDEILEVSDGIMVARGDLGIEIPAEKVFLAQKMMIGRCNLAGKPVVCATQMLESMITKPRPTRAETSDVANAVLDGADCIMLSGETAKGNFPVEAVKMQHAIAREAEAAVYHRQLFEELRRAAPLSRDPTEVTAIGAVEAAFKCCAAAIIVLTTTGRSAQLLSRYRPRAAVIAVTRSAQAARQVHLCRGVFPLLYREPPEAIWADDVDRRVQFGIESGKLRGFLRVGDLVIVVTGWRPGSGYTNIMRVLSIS

PKR = PKR (Homo sapiens, UniProt P30613); assay: Isoform selectivity of pyruvate kinases; type: biochemical
Sequence of PKR (P30613 whole entry, canonical isoform): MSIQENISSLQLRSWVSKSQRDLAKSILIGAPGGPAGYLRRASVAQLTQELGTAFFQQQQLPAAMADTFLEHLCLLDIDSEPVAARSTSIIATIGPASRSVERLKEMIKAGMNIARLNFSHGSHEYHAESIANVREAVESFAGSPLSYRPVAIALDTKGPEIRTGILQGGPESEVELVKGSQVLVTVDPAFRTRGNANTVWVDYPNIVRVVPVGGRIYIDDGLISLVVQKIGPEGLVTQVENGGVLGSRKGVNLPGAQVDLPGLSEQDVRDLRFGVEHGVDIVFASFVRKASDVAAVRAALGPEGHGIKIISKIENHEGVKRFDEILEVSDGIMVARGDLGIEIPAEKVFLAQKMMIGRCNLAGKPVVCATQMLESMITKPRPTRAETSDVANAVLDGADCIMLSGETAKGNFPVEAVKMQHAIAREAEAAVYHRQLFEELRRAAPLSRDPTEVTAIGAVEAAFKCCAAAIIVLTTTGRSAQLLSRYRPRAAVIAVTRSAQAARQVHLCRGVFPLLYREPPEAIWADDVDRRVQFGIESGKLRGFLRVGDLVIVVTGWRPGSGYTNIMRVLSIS

Compound | anti-tumor activity (HT-29 xenograft; 100 mg/kg Q2D) | anti-tumor activity (HT-29 xenograft; 200 mg/kg QD) | TGI reached by day ten (HT-29 xenograft; 200 mg/kg QD) [%] | Tumor Growth Inhibition (TGI) (HT-29 xenograft; 400 mg/kg QD, HT-29 xenograft, BALB/c nude mice) [%] | TGI reached by day ten (HT-29 xenograft; 400 mg/kg QD) [%] | AC50 (BT-474 (Breast)) [µM] | AC50 (DU145 (prostate)) [µM] | AC50 (H-460 (lung); 1 mM glucose) [µM] | AC50 (H-460 (lung); Complete media) [µM] | AC50 (H-460 (lung); Lipoprotein-free media) [µM] | AC50 (PKL) [µM] | AC50 (PKR) [µM]
CCS(=O)(=O)Nc1ccc(C2=NN(C(C)=O)C(c3ccc(OC)cc3)C2)cc1 (racemic) [Compound 1A, N-(4-(1-acetyl-5-(4-methoxyphenyl)-4,5-dihydro-1H-pyrazol-3-yl)phenyl)ethanesulfonamide] | statistically significantly anti-tumor activity | statistically significantly anti-tumor activity | > 50 | 42 | > 50 |  |  |  |  |  |  | 
COc1ccc([C@@H]2CC(c3ccc(NS(=O)(=O)c4ccc(F)cc4)cc3)=NN2C(C)=O)cc1 [Compound 13A, (S)—N-(4-(1-acetyl-5-(4-methoxyphenyl)-4,5-dihydro-1H-pyrazol-3-yl)phenyl)-4-fluorobenzenesulfonamide] |  |  |  |  |  | 10 to 20 | 10 to 20 | 10 to 20 | > 20 | < 3 | > 11 | > 30
